This note sets out measurements from patent US11648289B2, “Antibacterial method” (priority 2016, dated 2023).

No end group written: not given here.

One experiment relates to E. faecium 130409015079*. Particulars: E. faecium 130409015079, isolated from blood, Vancomycin-resistant. How it is done: (§1) Bacterial strains, growth conditions, bacteriocins and antimicrobial assays. All the strains (see below) used in minimal inhibitory concentration (MIC) assays (Varahan et al., 2014, M. Bio. 5:e01726-01714) were grown in BHI medium (Oxoid) at 30° C. without shaking. A collection of E. faecium strains isolated from blood in patients from different European hospitals was received from Department of Medical Microbiology, University Medical Center Utrecht, the Netherlands. […] Synthesized peptides were solubilized to concentrations of 10.0-0.1 mg/ml in 0.1% (vol/vol) trifluoroacetic acid and stored at −20° C. until use. […] Bacteriocin activity was determined by microtiter plate assay as previously described (Holo et al., 1991, J. Bacteriol., 173:3879-3887). The MIC was defined as the minimal bacteriocin concentration that inhibited the growth of the indicator strain by at least 50% (50% of the turbidity of the control culture without bacteriocin) in 200 μl culture. CD Spectroscopy Circular dichroism (CD) spectra were recorded using a Jasco J-810 spectropolarimeter (Jasco International Co) calibrated with D-camphor-10-sulfonate (Icatayama Chemical). All measurements were made using a quartz cuvette (Sterna) with 0.1 cm path length. Samples were scanned five times with a scanning rate of 50 nm/min with a bandwidth of 0.5 nm and response time of 1 s over the wavelength range 190-250 nm. Spectra were recorded at different (30 and 50%) trifluoroethanol (TFE) (Aldridge) concentrations at 25° C. The approximate α-helical content of the protein was estimated from its molar ellipticity at 222 nm (Scholtz et al., 1991, Biopolymers 31:1463-1470). NMR Spectroscopy The experiments were run on a sample containing 1.0 mM EntK1, 50% D3-TFE (99.5% D) (Aldrich), Milli-Q water and 0.2 mM of 4,4-dimethyl-4-silapentane-1-sulfonic acid (DSS) (Larodan). 2D NOESY (Jeener et al., 1979, J. Magn. Reson., 71:4546-4553), 2D TOCSY (Braunschweiler and Ernst, 1983, J. Magn. Reson., 53:521-528), 2D DQCOSY, ^15N-HSQC (Davis et al., 1992, J. Magn. Reson., 98:207-216) and ^13C-HSQC (Hurd, 1991, J. Magn. Reson., 91:648-653) were recorded. The data was acquired on a 600 MHz Bruker Avance II spectrometer with four channels and a 5 mm TCI cryoprobe (Bruker Biospin). NOESY spectra with mixing times between 120 ms and 300 ms were obtained for both samples. TOCSY mixing times of 15-80 ms were used. The experiments were run at 298.15 K. Spectra were processed using the Topspin program (Bruker Biospin). 4,4-dimethyl-4-silapentane-1-sulfonic acid (DSS) was used as a chemical shift standard, and ^15N and ^13C data were referenced using frequency ratios as described in (Wishart et al., 1995, J. Biomol. NMR., 6:135-140). For visualization, assignment and integration of the spectra the computer program CARA was used (Keller, 2004, The Computer Aided Resonance Assignment Tutorial. CANTINA Verlag, Goldau, Switzerland). The spectra were assigned using standard methods. Dihedral angle restraints were obtained from the chemical shift values using the program TALOS-N(Shen and Bax, 2013, J. Biomol. NMR, 56:227-241). Nuclear Overhauser effect (NOE) distance restraints were calculated from the peak volumes in the NOESY spectra with NOESY mixing time of 200 ms. All structure calculations were made using the structure calculation program CYANA 2.1 (Guntert et al., 1997, J. Mol. Biol., 273:283-298; Herrmann et al., 2002, J. Mol. Biol., 319:209-227). The annealing macro in CYANA calculated 100 structures. The 20 structures with the lowest energy were kept and analyzed further. The root-mean-square deviation (RMSD) was calculated and the structures were visualized using MolMol (Koradi et al., 1996, J. Mol. Graph., 14:51-55, 29-32). Generation of bacteriocin resistant mutants of E. faecalis and E. faecium.

In the next experiment the test system is E. faecium P040 INV-25. The conditions noted are these: E. faecium P040 INV-25, isolated from blood. How it is done:
as §1

The next experiment has as its system B. cercus LMGT 2735. The procedure: as §1
Experiment [1] has as its system E. faecium LMGT2787 resistant mutants. Particulars: only HR type found. How it is done:
as §1

For a further experiment, the system named is E. faecium A11 EFH2/00. Particulars: E. faecium A11 EFH2/00, isolated from blood. How it is done:
as §1

The next experiment deals with L. lactis IL1403. The procedure:
as §1

For the next experiment, the system named is S. aureus LMGT 3289. How it is done: as §1
Experiment [2] deals with S. pneumoniae ds220 non-induced. The conditions noted are these: WT rseP. The procedure:
as §1

The next experiment deals with E. faecium AH137. Particulars: E. faecium AH137, isolated from blood. The procedure:
as §1

For a further experiment, the system named is E. faecium 602589. Particulars: E. faecium 602589, isolated from blood. How it is done: as §1
In the next experiment the test system is E. faecium PO1402593*. The conditions noted are these: E. faecium PO1402593, isolated from blood, Vancomycin-resistant. The procedure:
as §1

For the next experiment, the system named is E. faecium P032 inv-4. Particulars: E. faecium P032 inv-4, isolated from blood. The procedure: as §1
For another experiment, the system named is E. faecium 14-597963*. The conditions noted are these: E. faecium 14-597963, isolated from blood, Vancomycin-resistant. How it is done: as §1
Another experiment concerns E. faecium 928379 A*. Particulars: isolated from blood, Vancomycin-resistant. How it is done:
as §1

For the next experiment, the system named is S. pneumoniae ms5. Particulars: for MIC: ms5, rseP HExxH>AAxxA, induced with ComS (2 μM). The procedure: as §1
The test system of the next experiment is E. faecium UW6920. The conditions noted are these: E. faecium UW6920, isolated from blood. How it is done: as §1
The subject of the next experiment is E. faecalis LMGT 3571. The procedure: as §1
The next experiment has as its system E. faecium LMGT 2787. The procedure:
as §1

As a reminder, the MIC is the lowest concentration that inhibits growth of the organism. High values mean a less susceptible organism, low ones a more susceptible organism. As to “MKFKFNPTGTIVKKLTQYEIAWFKNKHGYYPWEIPRC [EntK1]”, the “MIC 50” value is 0.02 µM in the experiment on E. faecium 130409015079*; 0.02 µM against E. faecium P040 INV-25; greater than 5.5 µM against B. cercus LMGT 2735; 0.045 µM in the experiment with E. faecium A11 EFH2/00; 0.17 µM with L. lactis IL1403; greater than 5.5 µM in the experiment on S. aureus LMGT 3289. The “MIC 50” value with E. faecium AH137 turned out to be 0.01 µM; against E. faecium 602589 it was 0.045 µM; with E. faecium PO1402593*, 0.02 µM; with E. faecium P032 inv-4 it was 0.02 µM; in the experiment on E. faecium 14-597963*, 0.045 µM; in the experiment with E. faecium 928379 A* it was 0.02 µM. For the same sequence, the “MIC 50” value in the experiment on E. faecium UW6920 was 0.045 µM; in the experiment on E. faecalis LMGT 3571 it was greater than 5.5 µM; against E. faecium LMGT 2787, 0.02 µM. The “resistance of HR type mutants compared to the WT” value in [1] came out at 500 times. Besides, the MIC (in experiment [2]; in the experiment on S. pneumoniae ms5) was greater than 5.5 µM each time.

Take “MKTILRFVAGYDIASHKKKTGGYPWERGKA [LsbB, reference compound]”: the “MIC 50” value in the experiment with B. cercus LMGT 2735 is greater than 7 µM; in the experiment on L. lactis IL1403, 0.0005 µM; in the experiment on S. aureus LMGT 3289, greater than 7 µM; against E. faecalis LMGT 3571, greater than 7 µM; in the experiment on E. faecium LMGT 2787, greater than 7 µM. Moreover, the “times more potent than EntEJ97” value with L. lactis IL1403 is roughly 70 times. Also, the “times more potent than EntK1” value in the experiment on L. lactis IL1403 was “about 340 times”. Further, the MIC (in experiment [2]; against S. pneumoniae ms5) was greater than 7 µM each time.

In the case of “MLAKIKAMIKKFPNPYTLAAKLTTYEINWYKQQYGRYPWERPVA [EntEJ97]”, the “MIC 50” value was 0.037 µM against E. faecium 130409015079*; 0.075 µM in the experiment with E. faecium P040 INV-25; greater than 4.7 µM against B. cercus LMGT 2735; 0.075 µM against E. faecium A11 EFH2/00; 0.037 µM against L. lactis IL1403; greater than 4.7 µM against S. aureus LMGT 3289. In addition, the “MIC 50” value against E. faecium AH137 stood at 0.075 µM; in the experiment on E. faecium 602589 it was 0.145 µM; in the experiment on E. faecium PO1402593*, 0.075 µM; in the experiment on E. faecium P032 inv-4, 0.037 µM; against E. faecium 14-597963*, 0.145 µM; in the experiment on E. faecium 928379 A* it was 0.075 µM. Moreover, the “MIC 50” value was determined as 0.145 µM in the experiment on E. faecium UW6920, 0.295 µM in the experiment with E. faecalis LMGT 3571 and 0.145 µM in the experiment with E. faecium LMGT 2787. Moreover, the “resistance of HR type mutants compared to the WT” value in experiment [1] is 500 times. For the same sequence, the minimum inhibitory concentration (MIC) in [2] was greater than 4.5 µM; in the experiment with S. pneumoniae ms5, 0.6 µM. Further, the “times more resistant than the WT” value in the experiment on S. pneumoniae ms5 (all three conserved RseP residues replaced with alanines) was determined as 30 times.
